Measured values published in patent publication US20240425475A1, “COMPOUND BASED ON QUINAZOLINE-SUBSTITUTED GLUTARIMIDE SKELETON AND USE THEREOF” (GLUETACS THERAPEUTICS (SHANGHAI) CO., LTD., priority 2022, published 2024).

These molecules were tested against human Cereblon WT GST-tagged protein (Homo sapiens (Human), UniProt Q96SW2) (assay: CRBN-binding affinity, CEREBLON BINDING kit (HTRF)). Conditions: HTRF inhibitory activity, binding to CRBN.
Chain of human Cereblon WT GST-tagged protein (Q96SW2 whole entry): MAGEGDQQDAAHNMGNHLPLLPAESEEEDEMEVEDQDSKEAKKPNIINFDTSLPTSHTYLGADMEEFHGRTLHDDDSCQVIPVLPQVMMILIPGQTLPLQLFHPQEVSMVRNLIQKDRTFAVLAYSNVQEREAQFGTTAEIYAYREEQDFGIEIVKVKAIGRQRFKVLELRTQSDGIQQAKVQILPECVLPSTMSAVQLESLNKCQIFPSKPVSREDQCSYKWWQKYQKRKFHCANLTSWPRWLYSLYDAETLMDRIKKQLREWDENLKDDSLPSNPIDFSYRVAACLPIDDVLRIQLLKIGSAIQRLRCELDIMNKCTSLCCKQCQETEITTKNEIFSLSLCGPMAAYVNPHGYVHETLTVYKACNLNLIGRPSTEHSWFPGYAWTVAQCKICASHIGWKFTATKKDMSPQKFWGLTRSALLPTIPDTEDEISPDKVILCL
Excerpt: Determination of CRBN-Binding Affinity of Compounds
The CEREBLON BINDING kits (specification: 10,000 tests; product number: Catalog #64BDCRBNPEH; CISBIO company) was used to determine the CRBN binding ability of the compounds to be tested through a HTRF method (homogeneous time-resolved fluorescence). The specific methods are as follows: • 1. According to the instructions of the CEREBLON BINDING kits, the compounds to be tested of the present invention and lenalidomide were serially diluted using diluent #9 (1×) solution to obtain a final concentration of 2 μM for both the tested compounds and lenalidomide solution. • 2.2.5 μL of the above 2 μM of the tested compounds and lenalidomide solution, as well as the same volume of diluent #9 (1×) solution (solvent control group, Std0) were taken and added to each well of a 96-well plate, respectively. Then, 2.5 μL of (human Cereblon WT GST-tagged protein) solution was added to each well. Finally, 5 μL of the uniformly mixed thalidomide-Red reagent and GST Eu antibody working solution were added to each of the above wells. The final concentration of the tested compounds and lenalidomide in each well is 0.5 μM. • 3. The blank control wells were sequentially added with 2.5 μL of diluent #9 (1×) solution, 2.5 μL of PROTAC binding buffer, and 5 μL of uniformly mixed thalidomide-Red reagent and GST Eu antibody working solution. • 4. After sealing and incubating the solutions in the above wells at room temperature for 3 hours, the absorbance values at emission wavelengths of 620 nm and 665 nm were detected by the HTRF method using a Spark microplate reader (V3.1 SP1).
The corresponding CRBN binding inhibition rate was calculated using the following method: […]
Note: OD 665 nmcompound is the absorbance value of each well of the compounds to be tested of the present disclosure at an emission wavelength of 665 nm.
OD 620 nmcompound is the absorbance value of each well of the compounds to be tested of the present disclosure at an emission wavelength of 620 nm.
OD 665 nmcontrol is the absorbance value of the blank control well at an emission wavelength of 665 nm.
OD 620 nmcontrol is the absorbance value of the blank control well at an emission wavelength of 620 nm.
OD 665 nmstd0 is the absorbance value of the solvent control well at an emission wavelength of 665 nm.
OD 620 nmstd0 is the absorbance value of the solvent control well at an emission wavelength of 620 nm.
`Cc1nc2cccc(NCCOCCNC34CC5CC(CC(C5)C3)C4)c2c(=O)n1C1CCC(=O)NC1=O` (stereo not drawn) [GT-02234, 3-(5-((2-(2-(((1s,3s)-adamantan-1-yl)amino)ethoxy)ethyl)amino)-2-methyl-4-oxoquinazolin-3(4H)-yl)piperidine-2,6-dione] gave an IC50 of 3.34 µM. With `Cc1nc2cccc(NCCCNC3C4CC5CC(C4)CC3C5)c2c(=O)n1C1CCC(=O)NC1=O` (stereo not drawn) [GT-02326, 3-(5-((3-(((1r,3r,5r,7r)-adamantan-2-yl)amino)propyl)amino)-2-methyl-4-oxoquinazolin-3(4H)-yl)piperidine-2,6-dione] the IC50 was 0.7 µM. With `Cc1nc2cccc(NCCOCCNC34CC5CC(CC3C5)C4)c2c(=O)n1C1CCC(=O)NC1=O` (stereo not drawn) [GT-02389, 3-(5-((2-(2-(((3as,6as)-hexahydro-2,5-methanopentalen-3a(1H)-yl)amino)ethoxy)ethyl)amino)-2-methyl-4-oxoquinazolin-3(4H)-yl)piperidine-2,6-dione] the IC50 was 0.78 µM. `Cc1nc2cccc(NCCCCNC3C4CC5CC(C4)CC3C5)c2c(=O)n1C1CCC(=O)NC1=O` (stereo not drawn) [GT-02392, 3-(5-((4-(((1r,3r,5r,7r)-adamantan-2-yl)amino)butyl)amino)-2-methyl-4-oxoquinazolin-3(4H)-yl)piperidine-2,6-dione] showed an IC50 of 0.99 µM. Molecule `Cc1nc2cccc(NCCOCCOCCNC34CC5CC(CC3C5)C4)c2c(=O)n1C1CCC(=O)NC1=O` (stereo not drawn) [GT-02497, 3-(5-((2-(2-(2-(((3as,6as)-hexahydro-2,5-methanopentalen-3a(1H)-yl)amino)ethoxy)ethoxy)ethyl)amino)-2-methyl-4-oxoquinazolin-3(4H)-yl)piperidine-2,6-dione] has an IC50 of 0.66 µM. With `Cc1nc2cccc(NCCCCCCCN3CCCN(C)CC3)c2c(=O)n1C1CCC(=O)NC1=O` (stereo not drawn) [GT-02502, 3-(2-methyl-5-((7-(4-methyl-1,4-diazepan-1-yl)heptyl)amino)-4-oxoquinazolin-3(4H)-yl)piperidine-2,6-dione] the IC50 was 1.8 µM. Molecule `Cc1nc2cccc(NC34CC5CC(CC(C5)C3)C4)c2c(=O)n1C1CCC(=O)NC1=O` (stereo not drawn) [GT-02601, 3-(5-(((1s,3s)-adamantan-1-yl)amino)-2-methyl-4-oxoquinazolin-3(4H)-yl)piperidine-2,6-dione] has an IC50 of 2.82 µM. `Cc1nc2cccc(NCCCCCCCN3CC4CC(C3)O4)c2c(=O)n1C1CCC(=O)NC1=O` (stereo not drawn) [GT-02621, 3-(5-((7-(6-oxa-3-azabicyclo[3.1.1]heptan-3-yl)heptyl)amino)-2-methyl-4-oxoquinazolin-3(4H)-yl)piperidine-2,6-dione] was tested, and the IC50 was 1.04 µM. For `Cc1nc2cccc(NCCCCCCCN3CCC(N4CCOCC4)CC3)c2c(=O)n1C1CCC(=O)NC1=O` (stereo not drawn) [GT-02622, 3-(2-methyl-5-((7-(4-morpholinopiperidin-1-yl)heptyl)amino)-4-oxoquinazolin-3(4H)-yl)piperidine-2,6-dione], the IC50 was 2.48 µM. `Cc1nc2cccc(NCCCCCCCN3CCN(C4COC4)CC3)c2c(=O)n1C1CCC(=O)NC1=O` (stereo not drawn) [GT-02623, 3-(2-methyl-5-((7-(4-(oxetan-3-yl)piperazin-1-yl)heptyl)amino)-4-oxoquinazolin-3(4H)-yl)piperidine-2,6-dione] gave an IC50 of 2.52 µM. Molecule `Cc1nc2cccc(C#CCCCCCCN3CCN(C)CC3)c2c(=O)n1C1CCC(=O)NC1=O` (stereo not drawn) [GT-02645, 3-(2-methyl-5-(8-(4-methylpiperazin-1-yl)oct-1-yn-1-yl)-4-oxoquinazolin-3(4H)-yl)piperidine-2,6-dione] has an IC50 of 2.8 µM. `Cc1nc2cccc(CCCCCNC34CC5CC(CC(C5)C3)C4)c2c(=O)n1C1CCC(=O)NC1=O` (stereo not drawn) [GT-02759, 3-(5-(5-(((3s,5s,7s)-adamantan-1-yl)amino)pentyl)-2-methyl-4-oxoquinazolin-3(4H)-yl)piperidine-2,6-dione] showed an IC50 of 0.05 µM. `Cc1nc2cccc(CCCCCCCCN3CCC(N4CCN(C)CC4)CC3)c2c(=O)n1C1CCC(=O)NC1=O` (stereo not drawn) [GT-02799, 3-(2-methyl-5-(8-(4-(4-methylpiperazin-1-yl)piperidin-1-yl)octyl)-4-oxoquinazolin-3(4H)-yl)piperidine-2,6-dione] was tested, and the IC50 was 2.47 µM. Molecule `Cc1nc2cccc(CCCCCCCCN3CC4CC(C3)O4)c2c(=O)n1C1CCC(=O)NC1=O` (stereo not drawn) [GT-02800, 3-(5-(8-(6-oxa-3-azabicyclo[3.1.1]heptan-3-yl)octyl)-2-methyl-4-oxoquinazolin-3(4H)-yl)piperidine-2,6-dione] has an IC50 of 3.4 µM. Work on `Cc1nc2cccc(CN3CCN(CC45CC6CC(CC(C6)C4)C5)CC3)c2c(=O)n1C1CCC(=O)NC1=O` (stereo not drawn) [GT-03227, 3-(5-((4-(((3r,5r,7r)-adamantan-1-yl)methyl)piperazin-1-yl)methyl)-2-methyl-4-oxoquinazolin-3(4H)-yl)piperidine-2,6-dione] yielded an IC50 of 2.24 µM. Work on `Cc1nc2cccc(CN3CCNCC3)c2c(=O)n1C1CCC(=O)NC1=O` (stereo not drawn) [GT-03228, 3-(2-methyl-4-oxo-5-(piperazin-1-ylmethyl)quinazolin-3(4H)-yl)piperidine-2,6-dione] yielded an IC50 of 1.84 µM. With `Cc1nc2cccc(CN3CCN(Cc4ccc(C56CC7CC(CC(C7)C5)C6)cc4)CC3)c2c(=O)n1C1CCC(=O)NC1=O` (stereo not drawn) [GT-03230, 3-(5-((4-(4-((3r,5r,7r)-adamantan-1-yl)benzyl)piperazin-1-yl)methyl)-2-methyl-4-oxoquinazolin-3(4H)-yl)piperidine-2,6-dione] the IC50 was 2.75 µM. `Cc1nc2cccc(C#CCN3CCN(Cc4ccc(C56CC7CC(CC(C7)C5)C6)cc4)CC3)c2c(=O)n1C1CCC(=O)NC1=O` (stereo not drawn) [GT-03233, 3-(5-(3-(4-(4-((3r,5r,7r)-adamantan-1-yl)benzyl)piperazin-1-yl)prop-1-yn-1-yl)-2-methyl-4-oxoquinazolin-3(4H)-yl)piperidine-2,6-dione] showed an IC50 of 2.24 µM. For `Cc1nc2cccc(SCCN3CCN(CC45CC6CC(CC(C6)C4)C5)CC3)c2c(=O)n1C1CCC(=O)NC1=O` (stereo not drawn) [GT-03259, 3-(5-((2-(4-(((3r,5r,7r)-adamantan-1-yl)methyl)piperazin-1-yl)ethyl)thio)-2-methyl-4-oxoquinazolin-3(4H)-yl)piperidine-2,6-dione], the IC50 was 2.15 µM. `Cc1nc2cccc(CN3CCN(CCC45CC6CC(CC(C6)C4)C5)CC3)c2c(=O)n1C1CCC(=O)NC1=O` (stereo not drawn) [GT-03261, 3-(5-((4-(2-((3r,5r,7r)-adamantan-1-yl)ethyl)piperazin-1-yl)methyl)-2-methyl-4-oxoquinazolin-3(4H)-yl)piperidine-2,6-dione] gave an IC50 of 1 µM. Work on `Cc1nc2cccc(C#CCN3CCN(CCC45CC6CC(CC(C6)C4)C5)CC3)c2c(=O)n1C1CCC(=O)NC1=O` (stereo not drawn) [GT-03262, 3-(5-(3-(4-(2-((1s,3s)-adamantan-1-yl)ethyl)piperazin-1-yl)prop-1-yn-1-yl)-2-methyl-4-oxoquinazolin-3(4H)-yl)piperidine-2,6-dione] yielded an IC50 of 1 µM. Molecule `Cc1nc2cccc(SCCN3CCN(Cc4ccc(C56CC7CC(CC(C7)C5)C6)cc4)CC3)c2c(=O)n1C1CCC(=O)NC1=O` (stereo not drawn) [GT-03315, 3-(5-((2-(4-(4-((1s,3s)-adamantan-1-yl)benzyl)piperazin-1-yl)ethyl)thio)-2-methyl-4-oxoquinazolin-3(4H)-yl)piperidine-2,6-dione] has an IC50 of 1.98 µM. In the case of `Cc1nc2cccc(CN3CCN(C(=O)C45CC6CC(CC(C6)C4)C5)CC3)c2c(=O)n1C1CCC(=O)NC1=O` (stereo not drawn) [GT-03317, 3-(5-((4-((1s,3s)-adamantane-1-carbonyl)piperazin-1-yl)methyl)-2-methyl-4-oxoquinazolin-3(4H)-yl)piperidine-2,6-dione], the IC50 is reported as 3.58 µM. `Cc1nc2cccc(N3C4CC3CN(CCC35CC6CC(CC(C6)C3)C5)C4)c2c(=O)n1C1CCC(=O)NC1=O` (stereo not drawn) [GT-04231, 3-(5-(3-(2-((3r,5r,7r)-adamantan-1-yl)ethyl)-3,6-diazabicyclo[3.1.1]heptan-6-yl)-2-methyl-4-oxoquinazolin-3(4H)-yl)piperidine-2,6-dione] gave an IC50 of 3.24 µM.
